Literature values as cited in US4771122A, “Novel cyclosporins” (Sandoz Ltd., priority 1985, dated 1988).

Details: reported in literature

Substance: [(D)Pro]^3 -Cyclosporine
- immunosuppressive activity: substantially lacking in immunosuppressive activity
